{
  "source": "patent US6589915B1",
  "about": "“Benzohetero cyclylcyclo hexenones and their use as herbicides” (BASF Aktiengesellschaft, priority 1999, dated 2003)",
  "format_in_all_cases": "in vivo",
  "key": {"[1]": {"test_system": "AMARE (redroot pigweed)", "assay": "greenhouse post-emergence herbicidal test", "text": "(§1) The seeds of the test plants were sown separately for each species. For the post-emergence treatment, the test plants were first, grown to a plant height of from 3 to 15 cm, depending on the plant habit, and only then treated with the active ingredients which had been suspended or emulsified in water. To this end, the test plants were either sown directly and grown in the same containers, or they were first grown separately as seedlings and transplanted into the test containers a few days prior to treatment. […] Depending on the species, the plants were kept at from 10 to 25° C., or 20 to 35° C., respectively. The test period extended over 2 to 4 weeks. During this time, the plants were tended, and their response to the individual treatments was evaluated. Evaluation was carried out using a scale of from 0 to 100. 100 means no emergence of the plants, or complete destruction of at least the aerial parts, and 0 means no damage, or normal course of growth. [table] The following experiments were performed by the post-emergence method."}, "[2]": {"test_system": "CHEAL (lambsquarters (goosefoot))", "assay": "greenhouse post-emergence herbicidal test", "text": "as §1"}, "[3]": {"test_system": "POLPE (ladysthumb)", "assay": "greenhouse post-emergence herbicidal test", "text": "as §1"}, "[4]": {"test_system": "IPOSS", "assay": "greenhouse post-emergence herbicidal test", "text": "as §1, with “growth.” for “growth. [table]”"}, "[5]": {"test_system": "wheat", "assay": "greenhouse post-emergence test, crop selectivity", "conditions": "0.25 and 0.5 kg/ha (a.s.)", "text": "as §1"}, "[6]": {"test_system": "ABUTH (velvet leaf)", "assay": "greenhouse post-emergence herbicidal test", "text": "as §1"}, "[7]": {"test_system": "ECHCG (barnyard grass)", "assay": "greenhouse post-emergence herbicidal test", "text": "as §1"}, "[8]": {"test_system": "SETFA (giant foxtail)", "assay": "greenhouse post-emergence herbicidal test", "text": "as §1"}, "[9]": {"test_system": "PHPBU", "assay": "greenhouse post-emergence herbicidal test", "conditions": "0.125 and 0.25 kg/ha (a.s.)", "text": "(§2) The seeds of the test plants were sown separately for each species. For the post-emergence treatment, the test plants were first, grown to a plant height of from 3 to 15 cm, depending on the plant habit, and only then treated with the active ingredients which had been suspended or emulsified in water. To this end, the test plants were either sown directly and grown in the same containers, or they were first grown separately as seedlings and transplanted into the test containers a few days prior to treatment. The rat e of application for the post-emergence treatment was 0.25 or 0.125 kg of a.s. (active substance)/ha. Depending on the species, the plants were kept at from 10 to 25° C., or 20 to 35° C., respectively. The test period extended over 2 to 4 weeks. During this time, the plants were tended, and their response to the individual treatments was evaluated. Evaluation was carried out using a scale of from 0 to 100. 100 means no emergence of the plants, or complete destruction of at least the aerial parts, and 0 means no damage, or normal course of growth. [table] The following experiments were performed by the post-emergence method."}, "[10]": {"test_system": "GALAP (catchweed bedstraw)", "assay": "greenhouse post-emergence herbicidal test", "conditions": "0.125 and 0.25 kg/ha (a.s.)", "text": "as §2"}},
  "data": [
    {"smiles": "Cc1c(C(=O)C2=C(O)CCCC2=O)ccc2scnc12", "note": "[Example I-1a.394]", "values": [
      {"measurement": "herbicidal action against AMARE", "setting": "[1]; 0.25 and 0.5 kg/ha (a.s.)", "value": "very good"},
      {"measurement": "herbicidal action against CHEAL", "setting": "[2]; 0.25 and 0.5 kg/ha (a.s.)", "value": "very good"},
      {"measurement": "herbicidal action against POLPE", "setting": "[3]; 0.25 and 0.5 kg/ha (a.s.)", "value": "very good"},
      {"measurement": "herbicidal action against IPOSS", "setting": "[4]; 0.25 and 0.5 kg/ha (a.s.)", "value": "very good"},
      {"measurement": "selectivity in wheat", "setting": "[5]", "value": "selectivity"}
    ]},
    {"smiles": "Cc1c(C(=O)C2=C(O)CCCC2=O)ccc2sc(C(C)C)nc12", "note": "[Example I-1a.408]", "values": [
      {"measurement": "herbicidal action against ABUTH", "setting": "[6]; 0.125 and 0.25 kg/ha (a.s.)", "value": "good to very good"},
      {"measurement": "herbicidal action against CHEAL", "setting": "[2]; 0.125 and 0.25 kg/ha (a.s.)", "value": "good to very good"},
      {"measurement": "herbicidal action against ECHCG", "setting": "[7]; 0.125 and 0.25 kg/ha (a.s.)", "value": "good to very good"},
      {"measurement": "herbicidal action against POLPE", "setting": "[3]; 0.125 and 0.25 kg/ha (a.s.)", "value": "good to very good"}
    ]},
    {"smiles": "Cc1c(C(=O)C2=C(O)CC(C)(C)CC2=O)ccc2sc(Cl)nc12", "note": "[Example I-1c.396]", "values": [
      {"measurement": "herbicidal action against AMARE", "setting": "[1]; 0.25 and 0.5 kg/ha (a.s.)", "value": "good to very good"},
      {"measurement": "herbicidal action against CHEAL", "setting": "[2]; 0.25 and 0.5 kg/ha (a.s.)", "value": "good to very good"},
      {"measurement": "herbicidal action against ECHCG", "setting": "[7]; 0.25 and 0.5 kg/ha (a.s.)", "value": "good to very good"},
      {"measurement": "herbicidal action against SETFA", "setting": "[8]; 0.25 and 0.5 kg/ha (a.s.)", "value": "good to very good"}
    ]},
    {"smiles": "CCc1nc2c(C)c(C(=O)C3=C(O)C4CCC(C4)C3=O)ccc2s1", "note": "(centres unmarked) [Example I-1x.406]", "values": [
      {"measurement": "herbicidal action against ABUTH", "setting": "[6]; 0.125 and 0.25 kg/ha (a.s.)", "value": "very good"},
      {"measurement": "herbicidal action against CHEAL", "setting": "[2]; 0.125 and 0.25 kg/ha (a.s.)", "value": "very good"},
      {"measurement": "herbicidal action against ECHCG", "setting": "[7]; 0.125 and 0.25 kg/ha (a.s.)", "value": "very good"},
      {"measurement": "herbicidal action against POLPE", "setting": "[3]; 0.125 and 0.25 kg/ha (a.s.)", "value": "very good"}
    ]},
    {"smiles": "COCc1nc2c(C)c(C(=O)C3=C(O)C4CCC(C4)C3=O)ccc2s1", "note": "(centres unmarked) [Example I-1x.420]", "values": [
      {"measurement": "herbicidal action against CHEAL", "setting": "[2]; 0.125 and 0.25 kg/ha (a.s.)", "value": "very good"},
      {"measurement": "herbicidal action against ECHCG", "setting": "[7]; 0.125 and 0.25 kg/ha (a.s.)", "value": "very good"},
      {"measurement": "herbicidal action against POLPE", "setting": "[3]; 0.125 and 0.25 kg/ha (a.s.)", "value": "very good"},
      {"measurement": "herbicidal action against SETFA", "setting": "[8]; 0.125 and 0.25 kg/ha (a.s.)", "value": "very good"},
      {"measurement": "herbicidal action against PHPBU", "setting": "[9]", "value": "very good"}
    ]},
    {"smiles": "CSc1nc2c(C)c(C(=O)C3=C(O)C4CCC(C4)C3=O)ccc2s1", "note": "(centres unmarked) [Example I-1x.435]", "values": [
      {"measurement": "herbicidal action against AMARE", "setting": "[1]; 0.0625 and 0.125 kg/ha (a.s.)", "value": "very good"},
      {"measurement": "herbicidal action against CHEAL", "setting": "[2]; 0.0625 and 0.125 kg/ha (a.s.)", "value": "very good"},
      {"measurement": "herbicidal action against ECHCG", "setting": "[7]; 0.0625 and 0.125 kg/ha (a.s.)", "value": "very good"}
    ]},
    {"smiles": "Cc1c(C(=O)C2=C(O)C3CCC(C3)C2=O)ccc2sc(Oc3ccccc3F)nc12", "note": "(centres unmarked) [Example I-1x.790]", "values": [
      {"measurement": "herbicidal action against CHEAL", "setting": "[2]; 0.125 and 0.25 kg/ha (a.s.)", "value": "very good"},
      {"measurement": "herbicidal action against ECHCG", "setting": "[7]; 0.125 and 0.25 kg/ha (a.s.)", "value": "very good"},
      {"measurement": "herbicidal action against POLPE", "setting": "[3]; 0.125 and 0.25 kg/ha (a.s.)", "value": "very good"},
      {"measurement": "herbicidal action against SETFA", "setting": "[8]; 0.125 and 0.25 kg/ha (a.s.)", "value": "very good"}
    ]},
    {"smiles": "CCc1nc2c(C)c(C(=O)C3=C(O)CCCC3=O)ccc2o1", "note": "[Example I-2a.406]", "values": [
      {"measurement": "herbicidal action against ABUTH", "setting": "[6]; 0.125 and 0.25 kg/ha (a.s.)", "value": "very good"},
      {"measurement": "herbicidal action against AMARE", "setting": "[1]; 0.125 and 0.25 kg/ha (a.s.)", "value": "very good"},
      {"measurement": "herbicidal action against CHEAL", "setting": "[2]; 0.125 and 0.25 kg/ha (a.s.)", "value": "very good"},
      {"measurement": "herbicidal action against IPOSS", "setting": "[4]; 0.125 and 0.25 kg/ha (a.s.)", "value": "very good"},
      {"measurement": "herbicidal action against GALAP", "setting": "[10]", "value": "good"}
    ]},
    {"smiles": "CCc1nc2c(C)c(C(=O)C3=C(O)C4CCC(C4)C3=O)ccc2o1", "note": "(centres unmarked) [Example I-2x.406]", "values": [
      {"measurement": "herbicidal action against ABUTH", "setting": "[6]; 0.0625 and 0.125 kg/ha (a.s.)", "value": "good to very good"},
      {"measurement": "herbicidal action against CHEAL", "setting": "[2]; 0.0625 and 0.125 kg/ha (a.s.)", "value": "good to very good"},
      {"measurement": "herbicidal action against ECHCG", "setting": "[7]; 0.0625 and 0.125 kg/ha (a.s.)", "value": "good to very good"},
      {"measurement": "herbicidal action against POLPE", "setting": "[3]; 0.0625 and 0.125 kg/ha (a.s.)", "value": "good to very good"}
    ]}
  ]
}
